Entries after “also recorded” stand apart in the source; their conditions may differ. Bounds are passed on as bounds.

The results in this text go back to US12240854B2, “TRAF 6 inhibitors” (Helmholtz Zentrum München - Deutsches Forschungszentrum für …, priority 2018, dated 2025).

One test addresses T1, TRAF6WTStrepII-Ubc13FH interaction (Homo sapiens, UniProt Q9Y4K3).
T1 construct: RING-Zincfinger1 (RZ1) domain (residues 50-159) of human TRAF6 wildtype; made in house; host or cells: E. coli BL21 codon plus RIPL
T1 sequence (Q9Y4K3 with tags, fused parts or gaps): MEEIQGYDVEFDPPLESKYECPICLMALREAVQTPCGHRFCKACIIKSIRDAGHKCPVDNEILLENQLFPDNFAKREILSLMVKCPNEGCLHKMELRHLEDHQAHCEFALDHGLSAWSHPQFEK
Nature of the test: ALPHAScreen TRAF6-Ubc13 interaction assay. The format is binding.
Conditions: not given
The text has this:
In order to identify small molecules that specifically target the RZ1 domain of TRAF6 and thereby prevent its binding to Ubc13, the ALPHAScreen technology (PerkinElmer) was chosen to detect TRAF6WTStrepII-Ubc13FH interaction in High-Throughput-Screenings as well as Structure Activity Relationship (SAR) analysis.
For performance of an automated ALPHAScreen assay, all following components were pre-diluted in ALPHAScreen buffer (1×PBS, 0.5% BSA, 0.01% Tween-20). First, the TRAF6 protein (end concentration 100 nM, 30 μL volume) was added to 384-well-opti-plates involving the MultiFlo dispensing system (BioTek) followed by transfer of the compounds via the Sciclone G3 transfer station (PerkinElmer). After addition of Ubc13FH (end concentration 75 nM, 10 μL volume) with the MultiFlo system and incubation for one hour at room temperature, both beads (Strep-Tactin Alpha Donor beads and Nickel-Chelate acceptor beads; end concentrations 4 μg each, 10 μL volume each) were mixed and added using the MultiFlo system in subdued light. Read-out of the plates occurred after another hour of incubation at room temperature. Statistical parameters including the coefficient of variation, Z′ factor and signal window were calculated to determine the quality of the HTS campaign. To evaluate the efficacy of the compounds, ALPHAScreen units of compound-treated samples were referred to DMSO control treated samples. Thereby, the TRAF6D57K mutant served as the control for minimum signal and was included on every plate of the screening. Compounds that inhibited TRAF6WTStrepII-Ubc13FH by more than 25% were considered as actives. After elimination of ALPHAScreen frequent hitter compounds and His-tag frequent hitters (Schorpp, K., I. Rothenaigner, E. Salmina, et al., Identification of Small-Molecule Frequent Hitters from AlphaScreen High-Throughput Screens. J Biomol Screen, 2014. 19(5): p. 715-26), 178 compounds were defined as primary hits and were subsequently tested in five-point serial dilution assays (2.5-40 μM) in TRAF6WTStrepII-Ubc13FH ALPHAScreen experiments. Only compounds with dose-dependent effects on TRAF6WTStrepII-Ubc13FH (n=27) were taken for further research. For analog testing, all compounds were analyzed in ten-point titration (0.2-100 μM) in TRAF6WTStrepII-Ubc13FH ALPHAScreen experiments. In parallel, the compounds were tested in the ALPHAScreen TruHits Kit (PerkinElmer) to rule out unspecific interference with the ALPHAScreen technology.
Background: Alpha assays give light when donor and acceptor beads are brought close together.
`Cc1nn(-c2ccc3nnc(C)n3n2)c(C)c1CCC(=O)N1CCN(c2ccccc2)CC1` [Example C25, 3-(3,5-dimethyl-1-(3-methyl-[1,2,4]triazolo[4,3-b]pyridazin-6-yl)-1H-pyrazol-4-yl)-1-(4-phenylpiperazin-1-yl)propan-1-one]: the “inhibition of TRAF6-Ubc13 interaction in ALPHAScreen (in words)” value is “promising hit; also recorded: best results in in-vitro and cell-based assays”.

The same test, now with this note: TRAF6 100 nM, Ubc13FH 75 nM; class symbols; read-out: IC50 Alphascreen (inhibition of TRAF6-UBC13 interaction).
Usually IC50 stands for the concentration at which inhibition is half-maximal. With `Cc1nn(-c2ccc3nnc(C)n3n2)c(C)c1CCC(=O)N1CCN(Cc2cccc(-c3nn[nH]n3)c2)CC1` [Example 154], the IC50 was at most 3 µM.

Turning to `Cc1nn(-c2ccc3nnc(C)n3n2)c(C)c1CCC(=O)N1CCN(Cc2cccc(S(C)(=O)=O)c2)CC1` [Example 155], the IC50 was at most 3 µM. The same measure, in the same setting: next, `Cc1nn(-c2ccc3nnc(C)n3n2)c(C)c1CCC(=O)N1CCN(Cc2cccc(NS(C)(=O)=O)c2)CC1` [Example 156]: at most 10 µM; `COc1ccc(CN2CCN(C(=O)CCc3c(C)nn(-c4ccc5nnc(C)n5n4)c3C)CC2)cc1` [Example 157]: at most 10 µM. In the case of `Cc1nn(-c2ccc3nnc(C)n3n2)c(C)c1CCC(=O)N1CCN(Cc2cccc(F)c2)CC1` [Example 158], the IC50 is at most 10 µM. On the same count and under the same terms, next, `Cc1nn(-c2ccc3nnc(C)n3n2)c(C)c1CCC(=O)N1CCN(Cc2cccc(C(F)(F)F)c2)CC1` [Example 159]: at most 3 µM; `Cc1ccccc1CN1CCN(C(=O)CCc2c(C)nn(-c3ccc4nnc(C)n4n3)c2C)CC1` [Example 160]: at most 3 µM. As to `Cc1nn(-c2ccc3nnc(C)n3n2)c(C)c1CCC(=O)N1CCN(Cc2cccc(C3CC3)c2)CC1` [Example 161], the IC50 was at most 3 µM. For the compound `Cc1nn(-c2ccc3nnc(C)n3n2)c(C)c1CCC(=O)N1CCN(Cc2ccc(F)c(C(F)(F)F)c2)CC1` [Example 162], the IC50 is at most 10 µM.

`Cc1nn(-c2ccc3nnc(C)n3n2)c(C)c1CCC(=O)N1CCN(Cc2cccc(Br)c2)CC1` [Example 163]: the IC50 was at most 3 µM.

For the compound `Cc1nn(-c2ccc3nnc(C)n3n2)c(C)c1CCC(=O)N1CCN(Cc2ccc(-c3nnn[nH]3)cc2)CC1` [Example 164], the IC50 was at most 3 µM. The same measure, in the same setting: as for `Cc1nn(-c2ccc3nnc(C)n3n2)c(C)c1CCC(=O)N1CCN(Cc2ccc3cc[nH]c3c2)CC1` [Example 165], the figure is at most 10 µM; as for `Cc1nn(-c2ccc3nnc(C)n3n2)c(C)c1CCC(=O)N1CCN(Cc2ccc3oc(=O)ccc3c2)CC1` [Example 166], at most 10 µM. Usually inhibition stands for the drop in the measured response relative to a control, in per cent. Regarding `Cc1nn(-c2ccc3nnc(C)n3n2)c(C)c1CCC(=O)NC1CCN(c2ccccc2)CC1` [Example 167], the inhibition at 100 µM was at least 30%. In the case of `Cc1nn(-c2ccc3nnc(C)n3n2)c(C)c1CCC(=O)N1CCC(Oc2ccccc2)CC1` [Example 168], the half-maximal inhibitory concentration (IC50) is at most 10 µM. For `Cc1nn(-c2ccc3nnc(C)n3n2)c(C)c1CCC(=O)N1CCN(Cc2ccc(-c3nnn[nH]3)cc2F)CC1` [Example 169], the IC50 was at most 10 µM. `Cc1nn(-c2ccc3nnc(C(F)(F)F)n3n2)c(C)c1CCC(=O)N1CCN(Cc2ccc(-c3nnn[nH]3)cc2F)CC1` [Example 170]: the IC50 is at most 3 µM. Turning to `Cc1nn(-c2ccc3nnc(C)n3n2)c(C)c1CCC(=O)N1CCN(Cc2cc(-c3nnn[nH]3)ccc2Cl)CC1` [Example 171], the IC50 is at most 3 µM. `Cc1nn(-c2ccc3nnc(C(F)(F)F)n3n2)c(C)c1CCC(=O)N1CCN(Cc2cc(-c3nnn[nH]3)ccc2Cl)CC1` [Example 172]: the IC50 was at most 3 µM.

For `Cc1nn(-c2ccc3nnc(C)n3n2)c(C)c1CCC(=O)N1CCN(Cc2ccc(-c3nnn[nH]3)cc2Cl)CC1` [Example 173], the IC50 was at most 3 µM. Take `Cc1nn(-c2ccc3nnc(C(F)(F)F)n3n2)c(C)c1CCC(=O)N1CCN(Cc2ccc(-c3nnn[nH]3)cc2Cl)CC1` [Example 174]: the IC50 is at most 3 µM. Turning to `Cc1nn(-c2ccc3nnc(C)n3n2)c(C)c1CCC(=O)N1CCN(Cc2cccc(-c3nnn[nH]3)c2Cl)CC1` [Example 175], the IC50 is at most 3 µM.

On to `Cc1nn(-c2ccc3nnc(C(F)(F)F)n3n2)c(C)c1CCC(=O)N1CCN(Cc2cccc(-c3nnn[nH]3)c2Cl)CC1` [Example 176], for which the IC50 was at most 3 µM. `Cc1nn(-c2ccc3nnc(C)n3n2)c(C)c1CCC(=O)N1CCN(Cc2cc(F)cc(-c3nnn[nH]3)c2)CC1` [Example 177]: the IC50 was at most 3 µM. `Cc1nn(-c2ccc3nnc(C(F)(F)F)n3n2)c(C)c1CCC(=O)N1CCN(Cc2cc(F)cc(-c3nnn[nH]3)c2)CC1` [Example 178]: the IC50 is at most 3 µM. Consider `Cc1nn(-c2ccc3nnc(C)n3n2)c(C)c1CCC(=O)N1CCN(Cc2cccc(-c3nnn[nH]3)c2C)CC1` [Example 179], for which the IC50 was at most 3 µM. For the compound `Cc1nn(-c2ccc3nnc(C(F)(F)F)n3n2)c(C)c1CCC(=O)N1CCN(Cc2cccc(-c3nnn[nH]3)c2C)CC1` [Example 180], the IC50 is at most 10 µM. For the compound `Cc1nn(-c2ccc3nnc(C(F)(F)F)n3n2)c(C)c1CCC(=O)N1CCN(Cc2cc(F)cc(C#N)c2)CC1` [Example 181], the IC50 is at most 30 µM. `Cc1nn(-c2ccc3nnc(C)n3n2)c(C)c1CCC(=O)N1CCN(Cc2ccc(C#N)cc2F)CC1` [Example 182]: the IC50 was at most 10 µM. As to `Cc1nn(-c2ccc3nnc(C(F)(F)F)n3n2)c(C)c1CCC(=O)N1CCN(Cc2cc(C#N)ccc2Cl)CC1` [Example 183], the IC50 is at most 3 µM. Turning to `Cc1nn(-c2ccc3nnc(C)n3n2)c(C)c1CCC(=O)N1CCN(Cc2cccc(C#N)c2Cl)CC1` [Example 184], the IC50 was at most 10 µM. For the compound `Cc1nn(-c2ccc3nnc(C)n3n2)c(C)c1CCC(=O)N1CCN(Cc2cccc(C#N)c2C)CC1` [Example 185], the IC50 is at most 3 µM.

Consider `Cc1nn(-c2ccc3nnc(C(F)(F)F)n3n2)c(C)c1CCC(=O)N1CCN(Cc2cccc(C#N)c2C)CC1` [Example 186], for which the IC50 was at most 10 µM. Take `Cc1nn(-c2ccc3nnc(C(F)(F)F)n3n2)c(C)c1CCC(=O)N1CCN(Cc2cccc(C#N)c2Cl)CC1` [Example 187]: the IC50 was at most 10 µM. For the compound `Cc1nn(-c2ccc3nnc(C)n3n2)c(C)c1CCC(=O)N1CCN(Cc2ccc(C#N)cc2Cl)CC1` [Example 188], the IC50 is at most 30 µM.

In the case of `Cc1nn(-c2ccc3nnc(C(F)(F)F)n3n2)c(C)c1CCC(=O)N1CCN(Cc2ccc(C#N)cc2Cl)CC1` [Example 189], the IC50 was at most 30 µM. Take `Cc1nn(-c2ccc3nnc(C(F)(F)F)n3n2)c(C)c1CCC(=O)N1CCN(Cc2ccc(C#N)cc2F)CC1` [Example 190]: the IC50 is at most 3 µM. Turning to `Cc1nn(-c2ccc3nnc(C)n3n2)c(C)c1CCC(=O)N1CCN(Cc2cc(C#N)ccc2Cl)CC1` [Example 191], the IC50 is at most 10 µM.
